We go through 3 compounds from patent US20070161107A1, “Differentiation of human embryonic stem cells to cardiomyocytes” (priority 2003, published 2007).

Assay [1] deals with human fetal ventricular cells. The assay can be described thus: Chronotropic response (beating rate) of cultured human fetal ventricular cells. It is filed as cell-based. The source says: (§1) FIG. 4. Action potentials and chronotropic responses. […] C.
(§2) Ventricular-like action potentials predominated (28 out of 33; table 2) but atrial-like (n=2), pacemaker-like (n=1) and vascular smooth muscle like-cells (n=2) were also found. In areas in which the cells were not beating but had adopted morphologies indistinguishable from beating areas (FIG. 1F), current injection was sufficient to induce repeated action potentials and sustained synchronous rhythmic contractions. Transcripts for MLC-2v were also detected by RTPCR in non-beating, myocyte-like areas (not shown); scoring beating muscle may thus underestimate the number of cardiomyocytes present in culture. […] The effects of phenylephrine, isoprenaline and carbachol on cultured dissociated hES cardiomyocytes were tested and compared to cultured human fetal ventricular cells (FIG. 4B). […] Similar effects were reported in mES derived cardiomyocytes 21 and mouse fetal cells (22).

Assay [2] relates to hES derived cardiomyocytes. The assay can be described thus: Chronotropic response (beating rate) of dissociated hES-derived cardiomyocytes. The format is cell-based, human. The conditions noted are these: cultured dissociated hES cardiomyocytes.
Excerpt: as §1
Co-cultures were initiated as for END-2 cells.
as §2

Molecules are shown by their SMILES.

Turning to `CNC[C@H](O)c1cccc(O)c1` [phenylephrine], the “effect on beating rate” value in assay [1] and in assay [2] was “increase” in each case.
Turning to `C[N+](C)(C)CCOC(N)=O` [Carbachol], the “effect on beating rate” value in assay [1] and in assay [2] was “decreased the beating rate” each time.
Take `CC(C)NCC(O)c1ccc(O)c(O)c1` (stereo not drawn) [isoprenaline]: the “effect on beating rate” value in assay [1] and in assay [2] was “increase” each time.
